From the NIST ThermoML archive (doi:10.1016/j.tca.2006.10.005)

Assay: molar heat capacity at constant pressure
Settings: 101.33 kPa, Crystal

O=C([O-])[O-].[Li+].[Li+] [lithium carbonate]
Settings	molar heat capacity at constant pressure [J/K/mol]
303.15 K	99.89
323.15 K	100.98
343.15 K	107.69
363.15 K	111.21
383.15 K	115.61
403.15 K	116.88
443.15 K	120.05
483.15 K	129.08
533.15 K	132.77
563.15 K	137.29
